Laboratory results as given in PubChem BioAssay (NCI).
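The compound was tested at five concentrations on cells cultured in 96-well plates, with a 48-hour exposure period. The concentration for 50% growth inhibition is given as GI50. TGI: total growth inhibition.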

Assays:
Experiment in all cases: NCI anticancer screen, dose series, 48 h
SN12C renal = system: SN12C renal
UACC-257 melanoma = system: UACC-257 melanoma
HOP-92 NSCLC = system: HOP-92 NSCLC
OVCAR-4 ovarian = system: OVCAR-4 ovarian
RXF 393 renal = system: RXF 393 renal
CAKI-1 renal = system: CAKI-1 renal
HT29 colon = system: HT29 colon
786-0 renal = system: 786-0 renal
T-47D breast = system: T-47D breast
NCI-H522 lung = system: NCI-H522 lung
U251 CNS = system: U251 CNS
A549 NSCLC = system: A549 NSCLC
HS 578T breast = system: HS 578T breast
HCT-116 colon = system: HCT-116 colon
OVCAR-3 ovarian = system: OVCAR-3 ovarian
M14 melanoma = system: M14 melanoma
HCT-15 colon = system: HCT-15 colon
MALME-3M melanoma = system: MALME-3M melanoma
IGROV1 ovarian = system: IGROV1 ovarian
HCC-2998 colon = system: HCC-2998 colon
UO-31 renal = system: UO-31 renal
EKVX NSCLC = system: EKVX NSCLC
SF-295 CNS = system: SF-295 CNS
COLO 205 colon = system: COLO 205 colon
SNB-19 CNS = system: SNB-19 CNS
MOLT-4 leukemia = system: MOLT-4 leukemia
SF-268 CNS = system: SF-268 CNS
K-562 leukemia = system: K-562 leukemia
SK-OV-3 ovarian = system: SK-OV-3 ovarian
OVCAR-5 ovarian = system: OVCAR-5 ovarian
A498 renal = system: A498 renal
OVCAR-8 ovarian = system: OVCAR-8 ovarian
MDA-MB-231 breast = system: MDA-MB-231 breast
MDA-MB-435 = system: MDA-MB-435
TK-10 renal = system: TK-10 renal
NCI-H23 lung = system: NCI-H23 lung
RPMI-8226 leukemia = system: RPMI-8226 leukemia
SF-539 CNS = system: SF-539 CNS
SK-MEL-5 melanoma = system: SK-MEL-5 melanoma
KM12 colon = system: KM12 colon
CCRF-CEM leukemia = system: CCRF-CEM leukemia
LOX IMVI melanoma = system: LOX IMVI melanoma
ACHN renal = system: ACHN renal
PC-3 prostate = system: PC-3 prostate
BT-549 breast = system: BT-549 breast
SK-MEL-2 melanoma = system: SK-MEL-2 melanoma
SK-MEL-28 melanoma = system: SK-MEL-28 melanoma
NCI/ADR-RES ovarian = system: NCI/ADR-RES ovarian
SW-620 colon = system: SW-620 colon
SR leukemia = system: SR leukemia
NCI-H460 lung = system: NCI-H460 lung
SNB-75 CNS = system: SNB-75 CNS
NCI-H226 lung = system: NCI-H226 lung
HL-60(TB) leukemia = system: HL-60(TB) leukemia
DU-145 prostate = system: DU-145 prostate
HOP-62 NSCLC = system: HOP-62 NSCLC
UACC-62 melanoma = system: UACC-62 melanoma
MCF7 breast = system: MCF7 breast

Compound: C=C(C)C(=O)O[C@H]1C[C@@]2(C)OC(=CC2=O)/C(CO)=C\[C@H]2OC(=O)C(=C)[C@H]12
- GI50 (SN12C renal): 114 nM
- TGI (SN12C renal): > 1230 nM
- GI50 (UACC-257 melanoma): 74 nM
- TGI (UACC-257 melanoma): 213 nM
- GI50 (HOP-92 NSCLC): 72.6 nM
- TGI (HOP-92 NSCLC): 173 nM
- GI50 (OVCAR-4 ovarian): 151 nM
- TGI (OVCAR-4 ovarian): 652 nM
- GI50 (RXF 393 renal): 57.6 nM
- TGI (RXF 393 renal): 120 nM
- GI50 (CAKI-1 renal): 87.9 nM
- TGI (CAKI-1 renal): 301 nM
- GI50 (HT29 colon): 112 nM
- TGI (HT29 colon): 356 nM
- GI50 (786-0 renal): 65.2 nM
- TGI (786-0 renal): 144 nM
- GI50 (T-47D breast): 72.9 nM
- TGI (T-47D breast): 588 nM
- GI50 (NCI-H522 lung): 7.73 nM
- TGI (NCI-H522 lung): 24.5 nM
- GI50 (U251 CNS): 159 nM
- TGI (U251 CNS): 579 nM
- GI50 (A549 NSCLC): 840 nM
- TGI (A549 NSCLC): > 3330 nM
- GI50 (HS 578T breast): 294 nM
- TGI (HS 578T breast): > 3330 nM
- GI50 (HCT-116 colon): 60.4 nM
- TGI (HCT-116 colon): 163 nM
- GI50 (OVCAR-3 ovarian): 55.2 nM
- TGI (OVCAR-3 ovarian): 149 nM
- GI50 (M14 melanoma): 72.3 nM
- TGI (M14 melanoma): 178 nM
- GI50 (HCT-15 colon): 70.3 nM
- TGI (HCT-15 colon): 223 nM
- GI50 (MALME-3M melanoma): 70.8 nM
- TGI (MALME-3M melanoma): 203 nM
- GI50 (IGROV1 ovarian): 145 nM
- TGI (IGROV1 ovarian): 562 nM
- GI50 (HCC-2998 colon): 216 nM
- TGI (HCC-2998 colon): 535 nM
- GI50 (UO-31 renal): 68.5 nM
- TGI (UO-31 renal): 177 nM
- GI50 (EKVX NSCLC): 137 nM
- TGI (EKVX NSCLC): 1070 nM
- GI50 (SF-295 CNS): 575 nM
- TGI (SF-295 CNS): 1500 nM
- GI50 (COLO 205 colon): 32.7 nM
- TGI (COLO 205 colon): 95.4 nM
- GI50 (SNB-19 CNS): 937 nM
- TGI (SNB-19 CNS): > 3330 nM
- GI50 (MOLT-4 leukemia): 80.2 nM
- TGI (MOLT-4 leukemia): 265 nM
- GI50 (SF-268 CNS): 168 nM
- TGI (SF-268 CNS): 836 nM
- GI50 (K-562 leukemia): 94.6 nM
- TGI (K-562 leukemia): 621 nM
- GI50 (SK-OV-3 ovarian): 1190 nM
- TGI (SK-OV-3 ovarian): > 3330 nM
- GI50 (OVCAR-5 ovarian): 84.8 nM
- TGI (OVCAR-5 ovarian): 226 nM
- GI50 (A498 renal): 565 nM
- TGI (A498 renal): 1290 nM
- GI50 (OVCAR-8 ovarian): 115 nM
- TGI (OVCAR-8 ovarian): > 1540 nM
- GI50 (MDA-MB-231 breast): 79.4 nM
- TGI (MDA-MB-231 breast): 206 nM
- GI50 (MDA-MB-435): 66.4 nM
- TGI (MDA-MB-435): 146 nM
- GI50 (TK-10 renal): 57.3 nM
- TGI (TK-10 renal): 127 nM
- GI50 (NCI-H23 lung): 153 nM
- TGI (NCI-H23 lung): 421 nM
- GI50 (RPMI-8226 leukemia): 80.9 nM
- TGI (RPMI-8226 leukemia): 229 nM
- GI50 (SF-539 CNS): 88 nM
- TGI (SF-539 CNS): 287 nM
- GI50 (SK-MEL-5 melanoma): 318 nM
- TGI (SK-MEL-5 melanoma): 1230 nM
- GI50 (KM12 colon): 509 nM
- TGI (KM12 colon): 1120 nM
- GI50 (CCRF-CEM leukemia): 27.4 nM
- TGI (CCRF-CEM leukemia): 259 nM
- GI50 (LOX IMVI melanoma): 53.3 nM
- TGI (LOX IMVI melanoma): 106 nM
- GI50 (ACHN renal): 61.2 nM
- TGI (ACHN renal): 228 nM
- GI50 (PC-3 prostate): 190 nM
- TGI (PC-3 prostate): 985 nM
- GI50 (BT-549 breast): 92.8 nM
- TGI (BT-549 breast): 292 nM
- GI50 (SK-MEL-2 melanoma): 120 nM
- TGI (SK-MEL-2 melanoma): 490 nM
- GI50 (SK-MEL-28 melanoma): 66.1 nM
- TGI (SK-MEL-28 melanoma): 148 nM
- GI50 (NCI/ADR-RES ovarian): 224 nM
- TGI (NCI/ADR-RES ovarian): > 3330 nM
- GI50 (SW-620 colon): 52.1 nM
- TGI (SW-620 colon): 147 nM
- GI50 (SR leukemia): 43.7 nM
- TGI (SR leukemia): 249 nM
- GI50 (NCI-H460 lung): 424 nM
- TGI (NCI-H460 lung): 2070 nM
- GI50 (SNB-75 CNS): 132 nM
- TGI (SNB-75 CNS): 1700 nM
- GI50 (NCI-H226 lung): 68.5 nM
- TGI (NCI-H226 lung): 172 nM
- GI50 (HL-60(TB) leukemia): 67.7 nM
- TGI (HL-60(TB) leukemia): 189 nM
- GI50 (DU-145 prostate): 120 nM
- TGI (DU-145 prostate): 673 nM
- GI50 (HOP-62 NSCLC): 654 nM
- TGI (HOP-62 NSCLC): 2350 nM
- GI50 (UACC-62 melanoma): 56.9 nM
- TGI (UACC-62 melanoma): 123 nM
- GI50 (MCF7 breast): 86.1 nM
- TGI (MCF7 breast): 418 nM
